Source: the supplement of paper PMC13380429

Legend:
Settings in all cases: 72 h
[1] = test system: Calu-3; test: drug sensitivity score (DSS) for viability; higher = more toxic; extreme values may be limits of the assay
[2] = test system: Vero E6; test: as above
[3] = test system: Caco-2; test: as above
[4] = test system: HepG2; test: as above
[5] = test system: Calu-3; test: cell viability relative to DMSO; higher = less toxic
[6] = test system: Vero E6; test: as above
[7] = test system: Caco-2; test: as above
[8] = test system: HepG2; test: as above
[9] = test system: Calu-3; test: relative viability EC50 (midpoint between 100% and the lowest measured viability); higher = less toxic
[10] = test system: Vero E6; test: as above
[11] = test system: Caco-2; test: as above
[12] = test system: HepG2; test: as above
[13] = test system: U2OS; test: drug sensitivity score (DSS) for viability; higher = more toxic; extreme values may be limits of the assay
[14] = test system: U2OS; test: cell viability relative to DMSO; higher = less toxic
[15] = test system: U2OS; test: relative viability EC50 (midpoint between 100% and the lowest measured viability); higher = less toxic

O=C(Cc1ccc(Cl)c(Cl)c1)N1CCCC[C@@H]1CN1CCCC1
drug sensitivity score [1]: 0 | drug sensitivity score [2]: 0 | drug sensitivity score [3]: 0 | drug sensitivity score [4]: 0.4 | cell viability ([5]; 1 nM): 100% | cell viability ([5]; 10 nM): 105% | cell viability ([5]; 100 nM): 92.1% | cell viability ([5]; 1000 nM): 109% | cell viability ([5]; 10000 nM): 103% | cell viability ([6]; 1 nM): 102% | cell viability ([6]; 10 nM): 104% | cell viability ([6]; 100 nM): 99.5% | cell viability ([6]; 1000 nM): 105% | cell viability ([6]; 10000 nM): 98.7% | cell viability ([7]; 1 nM): 85.2% | cell viability ([7]; 10 nM): 97% | cell viability ([7]; 100 nM): 104% | cell viability ([7]; 1000 nM): 95.5% | cell viability ([7]; 10000 nM): 102% | cell viability ([8]; 1 nM): 95.8% | cell viability ([8]; 10 nM): 93.5% | cell viability ([8]; 100 nM): 99.1% | cell viability ([8]; 1000 nM): 89.8% | cell viability ([8]; 10000 nM): 83.5% | relative viability EC50 [9]: > 10 µM | relative viability EC50 [10]: > 10 µM | relative viability EC50 [11]: > 10 µM | relative viability EC50 [12]: > 10 µM

Oc1cc2c(cc1O)C(c1ccccc1)CNCC2 (centres undefined)
drug sensitivity score [1]: 2.2 | drug sensitivity score [2]: 0 | drug sensitivity score [4]: 0 | drug sensitivity score [13]: 0 | cell viability ([5]; 1 nM): 77.4% | cell viability ([5]; 10 nM): 103% | cell viability ([5]; 100 nM): 78.6% | cell viability ([5]; 1000 nM): 99.6% | cell viability ([5]; 10000 nM): 78% | cell viability ([6]; 1 nM): 104% | cell viability ([6]; 10 nM): 98.2% | cell viability ([6]; 100 nM): 103% | cell viability ([6]; 1000 nM): 96.9% | cell viability ([6]; 10000 nM): 106% | cell viability ([8]; 1 nM): 110% | cell viability ([8]; 10 nM): 104% | cell viability ([8]; 100 nM): 108% | cell viability ([8]; 1000 nM): 91.8% | cell viability ([8]; 10000 nM): 107% | cell viability ([14]; 1 nM): 102% | cell viability ([14]; 10 nM): 102% | cell viability ([14]; 100 nM): 97.3% | cell viability ([14]; 1000 nM): 104% | cell viability ([14]; 10000 nM): 99% | relative viability EC50 [9]: > 10 µM | relative viability EC50 [10]: > 10 µM | relative viability EC50 [12]: > 10 µM | relative viability EC50 [15]: > 10 µM

Cc1c(C)c2c(c(C)c1O)CCC(C)(C)O2 [APC-100]
drug sensitivity score [1]: 0 | drug sensitivity score [2]: 0 | drug sensitivity score [3]: 0.6 | drug sensitivity score [4]: 0 | drug sensitivity score [13]: 0 | cell viability ([5]; 1 nM): 96.6% | cell viability ([5]; 10 nM): 95.1% | cell viability ([5]; 100 nM): 100% | cell viability ([5]; 1000 nM): 104% | cell viability ([5]; 10000 nM): 100% | cell viability ([6]; 1 nM): 93.5% | cell viability ([6]; 10 nM): 85.4% | cell viability ([6]; 100 nM): 99.1% | cell viability ([6]; 1000 nM): 88.1% | cell viability ([6]; 10000 nM): 102% | cell viability ([7]; 1 nM): 90.4% | cell viability ([7]; 10 nM): 118% | cell viability ([7]; 100 nM): 100% | cell viability ([7]; 1000 nM): 131% | cell viability ([7]; 10000 nM): 71.8% | cell viability ([8]; 1 nM): 120% | cell viability ([8]; 10 nM): 88.6% | cell viability ([8]; 100 nM): 120% | cell viability ([8]; 1000 nM): 95.7% | cell viability ([8]; 10000 nM): 99.2% | cell viability ([14]; 1 nM): 91.4% | cell viability ([14]; 10 nM): 100% | cell viability ([14]; 100 nM): 94.3% | cell viability ([14]; 1000 nM): 100% | cell viability ([14]; 10000 nM): 102% | relative viability EC50 [9]: > 10 µM | relative viability EC50 [10]: > 10 µM | relative viability EC50 [12]: > 10 µM | relative viability EC50 [15]: > 10 µM

O=C(NOCCO)c1ccc2cncn2c1Nc1ccc(I)cc1F [GDC-0623]
drug sensitivity score [1]: 19.7 | drug sensitivity score [2]: 16.8 | drug sensitivity score [3]: 13.8 | drug sensitivity score [4]: 31.7 | drug sensitivity score [13]: 8.6 | cell viability ([5]; 1 nM): 102% | cell viability ([5]; 10 nM): 78.5% | cell viability ([5]; 100 nM): 52.4% | cell viability ([5]; 1000 nM): 36.4% | cell viability ([5]; 10000 nM): 31.1% | cell viability ([6]; 1 nM): 98.4% | cell viability ([6]; 10 nM): 81.9% | cell viability ([6]; 100 nM): 55.5% | cell viability ([6]; 1000 nM): 49.9% | cell viability ([6]; 10000 nM): 49.3% | cell viability ([7]; 1 nM): 93.5% | cell viability ([7]; 10 nM): 79.5% | cell viability ([7]; 100 nM): 64.6% | cell viability ([7]; 1000 nM): 61.8% | cell viability ([7]; 10000 nM): 58.2% | cell viability ([8]; 1 nM): 91.8% | cell viability ([8]; 10 nM): 51.2% | cell viability ([8]; 100 nM): 23.7% | cell viability ([8]; 1000 nM): 19.6% | cell viability ([8]; 10000 nM): 12.4% | cell viability ([14]; 1 nM): 95.1% | cell viability ([14]; 10 nM): 92.6% | cell viability ([14]; 100 nM): 93.4% | cell viability ([14]; 1000 nM): 62% | cell viability ([14]; 10000 nM): 25.5% | relative viability EC50 [9]: 0.034 µM | relative viability EC50 [10]: 0.017 µM | relative viability EC50 [12]: 0.0088 µM | relative viability EC50 [15]: 0.916 µM
